From patent US20260256925A1, “INDAZOLE DERIVATIVES AS ESTROGEN RECEPTOR DEGRADERS” (REGENTS OF THE UNIVERSITY OF MICHIGAN, priority 2022, published 2026)

Tests used:
[1] = Cell growth assay, WST-8 (compounds B1-B126); format: cell-based; conditions: 96 h; T47D cell line, WST-8, 4 days; read-out: Cell growth inhibition in T47D cell line IC50
Summary of the method: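 Read-out is WST-8 absorbance at 450 nm (2.5 h, 37° C) as a fraction of vehicle control, from three separate repeats. Compound exposure lasted 4 days, starting one day after plating 1500 cells/well.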

ER = target: T1, ER (Homo sapiens, UniProt P03372); assay: In-cell western blot analysis, relative ER percentage (compounds B1-B126); format: cell-based; conditions: ER degradation, 16 hours, read-out: ICW DC50
T1 construct: endogenous in cells; probably T47D or MCF-7
T1 sequence (P03372 1-595): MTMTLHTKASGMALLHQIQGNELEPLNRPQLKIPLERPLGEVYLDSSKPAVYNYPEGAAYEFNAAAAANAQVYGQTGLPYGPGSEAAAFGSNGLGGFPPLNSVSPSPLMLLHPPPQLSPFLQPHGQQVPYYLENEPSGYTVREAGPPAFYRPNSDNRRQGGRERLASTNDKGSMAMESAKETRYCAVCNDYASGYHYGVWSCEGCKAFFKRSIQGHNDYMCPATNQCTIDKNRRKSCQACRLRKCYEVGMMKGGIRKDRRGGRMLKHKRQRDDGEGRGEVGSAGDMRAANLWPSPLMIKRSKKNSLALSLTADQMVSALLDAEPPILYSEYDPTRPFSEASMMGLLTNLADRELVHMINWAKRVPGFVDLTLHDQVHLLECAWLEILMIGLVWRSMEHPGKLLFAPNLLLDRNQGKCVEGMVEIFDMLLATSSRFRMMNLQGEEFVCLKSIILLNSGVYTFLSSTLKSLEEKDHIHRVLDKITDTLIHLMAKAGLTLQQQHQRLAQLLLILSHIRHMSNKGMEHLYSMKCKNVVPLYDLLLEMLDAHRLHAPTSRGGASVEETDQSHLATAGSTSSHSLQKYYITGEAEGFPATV
Summary of the method: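 Readout was a two-colour infrared in-cell western of formaldehyde-fixed cells after 16 h compound exposure at 0.5% DMSO, with 40,000 or 10,000 cells/well plated the previous night. Relative ER percentage compares treated wells against untreated/DMSO-treated wells taken as 100%.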

SMILES	IC50 [1]	DC50 (ER)
C[C@@H]1Cc2c(ccc3[nH]ncc23)[C@@H](c2ccc(N3CCC4(CCC(CN5CCN6c7ccc8c(c7OCC6C5)CN([C@H]5CCC(=O)NC5=O)C8=O)CO4)CC3)nn2)N1CC(F)(F)F (stereo partly drawn) [Compound B127, (3S)-3-(7-((9-(6-((6S,8R)-8-methyl-7-(2,2,2-trifluoroethyl)-6,7,8,9-tetrahydro-3H-pyrazolo[4,3-f]isoquinolin-6-yl)pyridazin-3-yl)-1-oxa-9-azaspiro[5.5]undecan-3-yl)methyl)-1-oxo-1,3,5,5a,6,7,8,9-octahydro-2H-pyrazino[1′,2′:4,5][1,4]oxazino[2,3-e]isoindol-2-yl)piperidine-2,6-dione]	< 0.001 µM	< 0.01 µM
C[C@@H]1Cc2c(ccc3[nH]ncc23)[C@@H](c2ccc(N3CCC4(CC3)CC(CN3CCN5c6cc7c(cc6OC[C@@H]5C3)C(=O)N(C3CCC(=O)NC3=O)C7)C4)cn2)N1CC(F)(F)F (stereo partly drawn) [Compound B77, 3-((S)-3-((7-(6-((6S,8R)-8-methyl-7-(2,2,2-trifluoroethyl)-6,7,8,9-tetrahydro-3H-pyrazolo[4,3-f]isoquinolin-6-yl)pyridin-3-yl)-7-azaspiro[3.5]nonan-2-yl)methyl)-8-oxo-1,2,3,4,4a,5,8,10-octahydro-9H-pyrazino[1′,2′:4,5][1,4]oxazino[2,3-f]isoindol-9-yl)piperidine-2,6-dione]	0.001 to 0.01 µM	0.01 to 0.1 µM
C[C@@H]1Cc2c(ccc3[nH]ncc23)[C@@H](c2ccc(N3CC4(CCC(CN5CCC6(CCOc7c6ccc6c7CN(C7CCC(=O)NC7=O)C6=O)CC5)CC4)C3)cn2)N1CC(F)(F)F (stereo partly drawn) [Compound B58, 3-(1-((2-(6-((6S,8R)-8-methyl-7-(2,2,2-trifluoroethyl)-6,7,8,9-tetrahydro-3H-pyrazolo[4,3-f]isoquinolin-6-yl)pyridin-3-yl)-2-azaspiro[3.5]nonan-7-yl)methyl)-7′-oxo-2′,3′,7′,9′-tetrahydro-8′H-spiro[piperidine-4,4′-pyrano[2,3-e]isoindol]-8′-yl)piperidine-2,6-dione]	< 0.001 µM	> 0.1 µM
C[C@@H]1Cc2c(ccc3[nH]ncc23)[C@@H](c2c(F)cc(N3CCC4(CC3)CN(CC(=O)N3CCN5c6cc7c(cc6OC[C@@H]5C3)C(=O)N(C3CCC(=O)NC3=O)C7)C4)cc2F)N1CC(F)F (stereo partly drawn) [Compound B21, 3-((S)-3-(2-(7-(4-((6S,8R)-7-(2,2-difluoroethyl)-8-methyl-6,7,8,9-tetrahydro-3H-pyrazolo[4,3-f]isoquinolin-6-yl)-3,5-difluorophenyl)-2,7-diazaspiro[3.5]nonan-2-yl)acetyl)-8-oxo-1,2,3,4,4a,5,8,10-octahydro-9H-pyrazino[1′,2′: 4,5][1,4]oxazino[2,3-f]isoindol-9-yl)piperidine-2,6-dione]	< 0.001 µM	< 0.01 µM
C[C@@H]1Cc2c(ccc3[nH]ncc23)[C@@H](c2c(F)cc(NC3CN(CC(=O)N4CCN5c6cc7c(cc6OC[C@@H]5C4)C(=O)N(C4CCC(=O)NC4=O)C7)C3)cc2F)N1CC(F)F (some centres unmarked) [Compound B27]	< 0.001 µM	0.01 to 0.1 µM
COc1cc(N2CCC3(CC2)OCC(CN2CCN4c5ccc6c(c5OC[C@@H]4C2)CN([C@@H]2CCC(=O)NC2=O)C6=O)CO3)ccc1[C@@H]1c2ccc3[nH]ncc3c2C[C@@H](C)N1CC(F)F [Compound B116, (R)-3-((S)-7-((9-(4-((6S,8R)-7-(2,2-difluoroethyl)-8-methyl-6,7,8,9-tetrahydro-3H-pyrazolo[4,3-f]isoquinolin-6-yl)-3-methoxyphenyl)-1,5-dioxa-9-azaspiro[5.5]undecan-3-yl)methyl)-1-oxo-1,3,5,5a,6,7,8,9-octahydro-2H-pyrazino[1′,2′:4,5][1,4]oxazino[2,3-e]isoindol-2-yl)piperidine-2,6-dione]	< 0.001 µM	< 0.01 µM
C[C@@H]1Cc2c(ccc3[nH]ncc23)[C@@H](c2ccc(N3CC4(CCC(CN5CCN6c7ccc8c(c7OC[C@H]6C5)CN(C5CCC(=O)NC5=O)C8=O)CC4)C3)cn2)N1CC(F)(F)F (stereo partly drawn) [Compound B108, 3-((R)-7-((2-(6-((6S,8R)-8-methyl-7-(2,2,2-trifluoroethyl)-6,7,8,9-tetrahydro-3H-pyrazolo[4,3-f]isoquinolin-6-yl)pyridin-3-yl)-2-azaspiro[3.5]nonan-7-yl)methyl)-1-oxo-1,3,5,5a,6,7,8,9-octahydro-2H-pyrazino[1′,2′:4,5][1,4]oxazino[2,3-e]isoindol-2-yl)piperidine-2,6-dione]	< 0.001 µM	< 0.01 µM
C[C@@H]1Cc2c(ccc3[nH]ncc23)[C@@H](c2ccc(N3CCC4(CC3)CC(CN3CCC5(CC3)COc3c5ccc5c3CN(C3CCC(=O)NC3=O)C5=O)CO4)cn2)N1CC(F)(F)F (stereo partly drawn) [Compound B95, 3-(1′-((8-(6-((6S,8R)-8-methyl-7-(2,2,2-trifluoroethyl)-6,7,8,9-tetrahydro-3H-pyrazolo[4,3-f]isoquinolin-6-yl)pyridin-3-yl)-1-oxa-8-azaspiro[4.5]decan-3-yl)methyl)-6-oxo-6,8-dihydro-2H,7H-spiro[furo[2,3-e]isoindole-3,4′-piperidin]-7-yl)piperidine-2,6-dione]	< 0.001 µM	> 0.1 µM
C[C@@H]1Cc2c(ccc3[nH]ncc23)[C@@H](c2c(F)cc(N3CCC(CN4CCN5c6c(ccc7c6CN(C6CCC(=O)NC6=O)C7=O)OC[C@@H]5C4)CC3)cc2F)N1CC(F)F (stereo partly drawn) [Compound B99, 3-((S)-9-((1-(4-((6S,8R)-7-(2,2-difluoroethyl)-8-methyl-6,7,8,9-tetrahydro-3H-pyrazolo[4,3-f]isoquinolin-6-yl)-3,5-difluorophenyl)piperidin-4-yl)methyl)-3-oxo-1,3,7,7a,8,9,10,11-octahydro-2H-pyrazino[1′,2′:4,5][1,4]oxazino[3,2-e]isoindol-2-yl)piperidine-2,6-dione]	> 0.01 µM	0.01 to 0.1 µM
C[C@@H]1Cc2c(ccc3[nH]ncc23)[C@@H](c2c(F)cc(C3CCN(C(=O)CN4CCN5c6cc7c(cc6OC[C@@H]5C4)C(=O)N(C4CCC(=O)NC4=O)C7)CC3)cc2F)N1CC(F)F (stereo partly drawn) [Compound B28, 3-((S)-3-(2-(4-(4-((6S,8R)-7-(2,2-difluoroethyl)-8-methyl-6,7,8,9-tetrahydro-3H-pyrazolo[4,3-f]isoquinolin-6-yl)-3,5-difluorophenyl)piperidin-1-yl)-2-oxoethyl)-8-oxo-1,2,3,4,4a,5,8,10-octahydro-9H-pyrazino[1′,2′:4,5][1,4]oxazino[2,3-f]isoindol-9-yl)piperidine-2,6-dione]	< 0.001 µM	0.01 to 0.1 µM
C[C@@H]1Cc2c(ccc3[nH]ncc23)[C@@H](c2c(F)cc(N3CCC4(CC3)CN(C(=O)CN3CCN5c6cc7c(cc6OC[C@@H]5C3)C(=O)N(C3CCC(=O)NC3=O)C7)C4)cc2F)N1CC(F)F (stereo partly drawn) [Compound B20, 3-((S)-3-(2-(7-(4-((6S,8R)-7-(2,2-difluoroethyl)-8-methyl-6,7,8,9-tetrahydro-3H-pyrazolo[4,3-f]isoquinolin-6-yl)-3,5-difluorophenyl)-2,7-diazaspiro[3.5]nonan-2-yl)-2-oxoethyl)-8-oxo-1,2,3,4,4a,5,8,10-octahydro-9H-pyrazino[1′,2′: 4,5][1,4]oxazino[2,3-f]isoindol-9-yl)piperidine-2,6-dione]	< 0.001 µM	< 0.01 µM
C[C@@H]1Cc2c(ccc3[nH]ncc23)[C@@H](c2ccc(N3CCC4(CC3)CC(CN3CCN5c6ccc7c(c6OC[C@H]5C3)CN(C3CCC(=O)NC3=O)C7=O)C4)cn2)N1CC(F)(F)F (stereo partly drawn) [Compound B106, 3-((R)-7-((7-(6-((6S,8R)-8-methyl-7-(2,2,2-trifluoroethyl)-6,7,8,9-tetrahydro-3H-pyrazolo[4,3-f]isoquinolin-6-yl)pyridin-3-yl)-7-azaspiro[3.5]nonan-2-yl)mcthyl)-1-oxo-1,3,5,5a,6,7,8,9-octahydro-2H-pyrazino[1′,2′:4,5][1,4]oxazino[2,3-e]isoindol-2-yl)piperidine-2,6-dione]	< 0.001 µM	< 0.01 µM
C[C@@H]1Cc2c(ccc3[nH]ncc23)[C@@H](c2ccc(N3CCC(CN4CCC5(CC4)COc4c5ccc5c4CN(C4CCC(=O)NC4=O)C5=O)CC3)cn2)N1CC(F)(F)F (stereo partly drawn) [Compound B62, 3-(1′-((1-(6-((6S,8R)-8-methyl-7-(2,2,2-trifluoroethyl)-6,7,8,9-tetrahydro-3H-pyrazolo[4,3-f]isoquinolin-6-yl)pyridin-3-yl)piperidin-4-yl)methyl)-6-oxo-6,8-dihydro-2H,7H-spiro[furo[2,3-e]isoindole-3,4′-piperidin]-7-yl)piperidine-2,6-dione]	< 0.001 µM	> 0.1 µM
